Laboratory results published in patent US20170355705A1 (GlaxoSmithKline Intellectual Property (No.2) Limited, priority 2014, published 2017).
Where a name gives a salt, the structure may show the parent alone. Read-outs that look alike come from different tables or passages of the source.

Target: T1, SIRT1 (Homo sapiens, UniProt Q96EB6)
T1 sequence (Q96EB6 1-747): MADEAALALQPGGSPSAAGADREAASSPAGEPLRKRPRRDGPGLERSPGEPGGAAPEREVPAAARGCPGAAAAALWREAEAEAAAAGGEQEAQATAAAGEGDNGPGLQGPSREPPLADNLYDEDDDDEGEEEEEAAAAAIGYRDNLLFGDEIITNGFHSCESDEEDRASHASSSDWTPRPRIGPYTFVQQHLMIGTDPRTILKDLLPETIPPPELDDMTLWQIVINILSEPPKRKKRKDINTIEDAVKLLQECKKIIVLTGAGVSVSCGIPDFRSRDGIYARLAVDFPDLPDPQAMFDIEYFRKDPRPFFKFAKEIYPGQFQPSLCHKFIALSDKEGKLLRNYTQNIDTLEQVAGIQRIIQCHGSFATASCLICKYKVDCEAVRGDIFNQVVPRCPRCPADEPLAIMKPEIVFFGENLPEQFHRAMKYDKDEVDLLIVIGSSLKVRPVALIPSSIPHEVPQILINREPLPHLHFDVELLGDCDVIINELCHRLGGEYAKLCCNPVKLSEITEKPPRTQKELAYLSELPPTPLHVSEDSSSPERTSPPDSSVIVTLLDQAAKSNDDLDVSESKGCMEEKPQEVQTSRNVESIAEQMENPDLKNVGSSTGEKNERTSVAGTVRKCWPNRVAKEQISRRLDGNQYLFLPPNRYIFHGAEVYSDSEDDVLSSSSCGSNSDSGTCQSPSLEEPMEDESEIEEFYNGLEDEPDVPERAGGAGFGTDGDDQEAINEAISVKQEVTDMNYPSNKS
Test: Trp mass spectrometry assay of SIRT1 activity (EC1.5, percent maximum activation)
Assay type: biochemical
Description: Mass spectrometry based assays were used to identify modulators of SIRT1 activity. […] The peptide was labeled with the fluorophore 5TMR (excitation 540 nm/emission 580 nm) at the C-terminus. The sequence of the peptide substrate was based on p53 with several modifications. In addition, the methionine residue naturally present in the sequence was replaced with the norleucine because the methionine may be susceptible to oxidation during synthesis and purification.
The Trp mass spectrometry assay was conducted as follows. […] The SIRT1 protein was obtained by cloning the SirT1 gene into a T7-promoter containing vector, which was then expressed in BL21(DE3) bacterial cells and purified as described in further detail below. Test compound was added at varying concentrations to this reaction mixture and the resulting reactions were monitored. After the 25 minute incubation with SIRT1, 10 μL of 10% formic acid was added to stop the reaction. The resulting reactions were sealed and frozen for later mass spec analysis. The relative SIRT1 activity was then determined by measuring the amount of O-acetyl-ADP-ribose (OAADPR) formed (or, alternatively, the amount of deacetylated Trp peptide generated) by the NAD-dependent sirtuin deacetylation reaction in the presence of varying concentrations of the test compound versus control reactions lacking the test compound. The degree to which the test agent activated deacetylation by SIRT1 was expressed as EC1.5 (i.e., the concentration of compound required to increase SIRT1 activity by 50% over the control lacking test compound), and Percent Maximum Activation (i.e., the maximum activity relative to control (100%) obtained for the test compound).
This time point was the same as that used for test compounds and, within the linear range, the endpoint represents a change in velocity.
For the above assay, SIRT1 protein was expressed and purified as follows. The SirT1 gene was cloned into a T7-promoter containing vector and transformed into BL21(DE3). The protein was expressed by induction with 1 mM IPTG as an N-terminal His-tag fusion protein at 18° C. overnight and harvested at 30,000×g. Cells were lysed with lysozyme in lysis buffer (50 mM Tris-HCl, 2 mM Tris[2-carboxyethyl]phosphine (TCEP), 10 μM ZnCl2, 200 mM NaCl) and further treated with sonication for 10 min for complete lysis. The protein was purified over a Ni-NTA column (Amersham) and fractions containing pure protein were pooled, concentrated and run over a sizing column (Sephadex S200 26/60 global). The peak containing soluble protein was collected and run on an Ion-exchange column (MonoQ). Gradient elution (200 mM-500 mM NaCl) yielded pure protein. This protein was concentrated and dialyzed against dialysis buffer (20 mM Tris-HCl, 2 mM TCEP) overnight. The protein was aliquoted and frozen at −80° C. until further use.
“NT” means not tested; “ND” means not determinable.

[1] = Trp mass spectrometry assay, 0.5 μM peptide substrate, 120 μM βNAD+, 10 nM SIRT1, 25 minutes at 25° C.
[2] = Trp mass spectrometry assay, EC1.5 = concentration giving 150% activation of SIRT1
[3] = Trp mass spectrometry assay, percent maximum activation of SIRT1

Compound	TRP MAX RESP (percent maximum fold activation) [1]	TRP Activity (EC1.5) [2]	TRP MAX RESP (percent maximum fold activation) [3]	TRP Activity (EC1.5, concentration of test compound that results in 150% activation of SIRT1) [1]	also measured
O=C(Nc1cnccn1)N1c2nc(N3CCOC(C4CC4)C3)ccc2N2CC[C@H]1C2 (stereo partly drawn)	A (Fold activation ≧150%)				
CC[C@@H]1CN(c2ccc3c(n2)N(C(=O)Nc2cnccn2)[C@H]2CCN3C2)CCO1	A (Fold activation ≧150%)				
Cc1cc(-c2ccc3c(n2)N(C(=O)Nc2cnccn2)C2CCN3C2)ccn1 (stereo in doubt) [Example 149, (4R)-7-(2-methylpyridin-4-yl)-N-(pyrazin-2-yl)-3,4-dihydro-1,4-methanopyrido[2,3-b][1,4]diazepine-5(2H)-carboxamide]		B (EC1.5 1-25 μM)	A (Fold activation ≧150%)		
O=C(Nc1ccnc(OCC(O)CO)c1)N1c2nc(-c3cccc(C(F)(F)F)c3)ccc2N2CC[C@H]1C2 (stereo in doubt) [Example 170, (4S)-N-(2-((S)-2,3-dihydroxypropoxy)pyridin-4-yl)-7-(3-(trifluoromethyl)phenyl)-3,4-dihydro-1,4-methanopyrido[2,3-b][1,4]diazepine-5(2H)-carboxamide]		A (EC1.5<1 μM)	A (Fold activation ≧150%)		
Cc1ccc(-c2nc3c(cc2C(F)(F)F)N2CC[C@@H](C2)N3C(=O)Nc2cccnc2)cn1 [Example 1, (4S)-7-(6-methylpyridin-3-yl)-N-(pyridin-3-yl)-8-(trifluoromethyl)-3,4-dihydro-1,4-methanopyrido[2,3-b][1,4]diazepine-5(2H)-carboxamide]		C (EC1.5>25 μM)	B (Fold Activation <150%)		
Cc1ccc(-c2nc3c(cc2Br)N2CC[C@@H](C2)N3C(=O)Nc2ccccn2)cn1 [Example 2, (4S)-8-bromo-7-(6-methylpyridin-3-yl)-N-(pyridin-2-yl)-3,4-dihydro-1,4-methano pyrido[2,3-b][1,4]diazepine-5(2H)-carboxamide]		B (EC1.5 1-25 μM)	A (Fold activation ≧150%)		
Cc1ccc(-c2nc3c(cc2Cl)N2CC[C@@H](C2)N3C(=O)Nc2cccnc2)cn1 [Example 3, (4S)-8-chloro-7-(6-methylpyridin-3-yl)-N-(pyridin-3-yl)-3,4-dihydro-1,4-methanopyrido[2,3-b][1,4]diazepine-5(2H)-carboxamide]					TRP Activity (EC1.5): B (key: A: EC1.5<1 μM; B: EC1.5 1-25 μM; EC1.5>25 μM); TRP MAX RESP (percent maximum fold activation): A (key: A: Fold activation ≧150%; B: Fold Activation <150%)
Cc1ccc(-c2nc3c(cc2F)N2CC[C@@H](C2)N3C(=O)Nc2ccccn2)cn1 [Example 5, (4S)-8-fluoro-7-(6-methylpyridin-3-yl)-N-(pyridin-2-yl)-3,4-dihydro-1,4-methanopyrido[2,3-b][1,4]diazepine-5(2H)-carboxamide]		B (EC1.5 1-25 μM)	A (Fold activation ≧150%)		
Cc1ccc(-c2nc3c(cc2Br)N2CC[C@@H](C2)N3C(=O)Nc2cccnc2)cn1 [Example 6, (4S)-8-bromo-7-(6-methylpyridin-3-yl)-N-(pyridin-3-yl)-3,4-dihydro-1,4-methanopyrido[2,3-b][1,4]diazepine-5(2H)-carboxamide]		B (EC1.5 1-25 μM)	A (Fold activation ≧150%)		
Cc1ccc(-c2nc3c(cc2F)N2CC[C@@H](C2)N3C(=O)Nc2cccnc2)cn1 [Example 7, (4S)-8-fluoro-7-(6-methylpyridin-3-yl)-N-(pyridin-3-yl)-3,4-dihydro-1,4-methanopyrido[2,3-b][1,4]diazepine-5(2H)-carboxamide]					TRP Activity (EC1.5): B (key: A: EC1.5<1 μM; B: EC1.5 1-25 μM; EC1.5>25 μM); TRP MAX RESP (percent maximum fold activation): A (key: A: Fold activation ≧150%; B: Fold Activation <150%)
Cc1ccc(-c2nc3c(cc2C)N2CC[C@@H](C2)N3C(=O)Nc2ccccn2)cn1 [Example 8, (4S)-8-methyl-7-(6-methylpyridin-3-yl)-N-(pyridin-2-yl)-3,4-dihydro-1,4-methanopyrido[2,3-b][1,4]diazepine-5(2H)-carboxamide]		B (EC1.5 1-25 μM)	A (Fold activation ≧150%)		

The next lines start with results.

TRP MAX RESP (percent maximum fold activation) [1]	TRP Activity (EC1.5) [2]	TRP MAX RESP (percent maximum fold activation) [3]	TRP Activity (EC1.5, concentration of test compound that results in 150% activation of SIRT1) [1]	Compound	also measured
	C (EC1.5>25 μM)	B (Fold Activation <150%)		Cc1cc(-c2ccc3c(n2)N(C(=O)N2CCC(C)C2)[C@H]2CCN3C2)ccn1 (single isomer, unassigned) [Example 193]	
B (Fold Activation <150%)			C (EC1.5>25 μM)	CC1CNCCN1c1ccc2c(n1)N(C(=O)Nc1cnccn1)[C@H]1CCN2C1 (single isomer, unassigned) [Example 228]	
B (Fold Activation <150%)			C (EC1.5>25 μM)	CC1CN(c2ccc3c(n2)N(C(=O)Nc2cnccn2)[C@H]2CCN3C2)CCN1 (single isomer, unassigned) [Example 229]	
A (Fold activation ≧150%)			B (EC1.5 1-25 μM)	O=C(Nc1cnccn1)N1c2nc(N3CCOC(C(F)(F)F)C3)ccc2N2CC[C@H]1C2 (single isomer, unassigned) [Example 230]	
A (Fold activation ≧150%)			A (EC1.5<1 μM)	O=C(Nc1cnccn1)N1c2nc(N3CCOC(C(F)(F)F)C3)ccc2N2CC[C@H]1C2 (single isomer, unassigned) [Example 231]	
A (Fold activation ≧150%)			B (EC1.5 1-25 μM)	Cc1cc(-c2ccc3c(n2)N(C(=O)Nc2cc(CCC(O)CO)ccn2)[C@H]2CCN3C2)ccn1 (single isomer, unassigned) [Example 359]	
A (Fold activation ≧150%)			B (EC1.5 1-25 μM)	Cc1cc(-c2ccc3c(n2)N(C(=O)Nc2cc(-c4cnc(C)o4)ccn2)C2CCN3C2)ccn1 (stereo in doubt) [Example 335, (4S)-N-(4-(2-methyloxazol-5-yl)pyridin-2-yl)-7-(2-methylpyridin-4-yl)-3,4-dihydro-1,4-methanopyrido[2,3-b][1,4]diazepine-5(2H)-carboxamide, Hydrochloride]	
A (Fold activation ≧150%)			B (EC1.5 1-25 μM)	O=C(Nc1ccnc(OCC(O)CO)c1)N1c2nc(-c3cnn(CC(F)(F)F)c3)c(Cl)cc2N2CC[C@H]1C2 (stereo in doubt) [Example 371, (4S)-8-chloro-N-(2-((R)-2,3-dihydroxypropoxy)pyridin-4-yl)-7-(1-(2,2,2-trifluoroethyl)-1H-pyrazol-4-yl)-3,4-dihydro-1,4-methanopyrido[2,3-b][1,4]diazepine-5(2H)-carboxamide]	
